Activity calls are given as the source filed them. The calls are words filed in the database; no cut-off is given here.
Tested on: Cladosporium cucumerinum
Assay: Antifungal activity against Cladosporium cucumerinum assessed as drug level causing inhibition of fungal growth after 2 days by TLC based bioautography
Assay type: functional

SMILES: C/C=C/C(=O)c1c(OC)cc2cc(OC)cc(OC)c2c1OC [GUIERANONE A]
- INH: 1 µg

SMILES: COc1cc(OC)c2c3c(c(OC)cc2c1)C(=O)CC(C)O3 (stereo not drawn)
- Activity: inactive

SMILES: COc1cc(OC)c2c(c1)cc(OC)c1c(=O)cc(C)oc12
- Activity: inactive

— ChEMBL document CHEMBL1150688, “Guieranone A, a naphthyl butenone from the leaves of Guiera senegalensis with antifungal activity” (2003)
